From ChEMBL document CHEMBL1201862, “PubChem BioAssay data set” (2004)
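Five compound concentrations were applied to cells in 96-well plates for 48 hours; endpoints were derived by simple linear interpolation of the resulting dose-response curve. The concentration for 50% growth inhibition is given as GI50.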 Activity calls are given as the source filed them. Rule as the data show it: active = GI50 up to about 1.1 µM and inactive = higher.

Key:
Assay in all cases: NCI anticancer screen, dose series, 48 h
786-0 = test system: 786-0
A498 = test system: A498
A549 = test system: A549
ACHN = test system: ACHN
BT-549 = test system: BT-549
CAKI-1 = test system: CAKI-1
CCRF-CEM = test system: CCRF-CEM
COLO 205 = test system: COLO 205
DU-145 = test system: DU-145
EKVX = test system: EKVX
HCC 2998 = test system: HCC 2998
HCT-116 = test system: HCT-116
HCT-15 = test system: HCT-15
HL-60 = test system: HL-60
HOP-62 = test system: HOP-62
HOP-92 = test system: HOP-92
HT-29 = test system: HT-29
Hs-578T = test system: Hs-578T
IGROV-1 = test system: IGROV-1
K562 = test system: K562
KM12 = test system: KM12
LOX IMVI = test system: LOX IMVI
M14 = test system: M14
MCF7 = test system: MCF7
MDA-MB-231 = test system: MDA-MB-231
MDA-MB-435 = test system: MDA-MB-435
Malme-3M = test system: Malme-3M
NCI-H226 = test system: NCI-H226
NCI-H23 = test system: NCI-H23
NCI-H460 = test system: NCI-H460
NCI-H522 = test system: NCI-H522
NCI/ADR-RES = test system: NCI/ADR-RES
OVCAR-3 = test system: OVCAR-3
OVCAR-5 = test system: OVCAR-5
OVCAR-8 = test system: OVCAR-8
PC-3 = test system: PC-3
RPMI-8226 = test system: RPMI-8226
RXF 393 = test system: RXF 393
SF-268 = test system: SF-268
SF-539 = test system: SF-539
SK-MEL-28 = test system: SK-MEL-28
SK-MEL-2 = test system: SK-MEL-2
SK-MEL-5 = test system: SK-MEL-5
SK-OV-3 = test system: SK-OV-3
SN12C = test system: SN12C
SNB-19 = test system: SNB-19
SR = test system: SR
SW-620 = test system: SW-620
T47D = test system: T47D
TK-10 = test system: TK-10
U-251 = test system: U-251
UACC-257 = test system: UACC-257
UACC-62 = test system: UACC-62
UO-31 = test system: UO-31
MOLT-4 = test system: MOLT-4
OVCAR-4 = test system: OVCAR-4
SF-295 = test system: SF-295
SNB-75 = test system: SNB-75

CCCCC/N=C/c1c(O)c(O)c(C(C)C)c2cc(C)c(-c3c(C)cc4c(C(C)C)c(O)c(O)c(/C=N/CCCCC)c4c3O)c(O)c12
GI50 (786-0): 11.8 µM (inactive) | GI50 (A498): 27.3 µM (inactive) | GI50 (A549): 5.58 µM (inactive) | GI50 (ACHN): 3.59 µM (inactive) | GI50 (BT-549): 7.87 µM (inactive) | GI50 (CAKI-1): 18 µM (inactive) | GI50 (CCRF-CEM): 25.2 µM (inactive) | GI50 (COLO 205): 2.75 µM (inactive) | GI50 (DU-145): 19.5 µM (inactive) | GI50 (EKVX): 7.96 µM (inactive) | GI50 (HCC 2998): 10.7 µM (inactive) | GI50 (HCT-116): 11 µM (inactive) | GI50 (HCT-15): 5.85 µM | GI50 (HL-60): 3.94 µM (inactive) | GI50 (HOP-62): 15.3 µM (inactive) | GI50 (HOP-92): 3.73 µM (inactive) | GI50 (HT-29): 2.88 µM (inactive) | GI50 (Hs-578T): 17.2 µM (inactive) | GI50 (IGROV-1): 9.98 µM (inactive) | GI50 (K562): 4.25 µM (inactive) | GI50 (KM12): 4.7 µM (inactive) | GI50 (LOX IMVI): 3.52 µM (inactive) | GI50 (M14): 38.1 µM (inactive) | GI50 (MCF7): 4.81 µM (inactive) | GI50 (MDA-MB-231): 7.43 µM (inactive) | GI50 (MDA-MB-435): 6.3 µM (inactive) | GI50 (Malme-3M): 12.7 µM (inactive) | GI50 (NCI-H226): 23 µM (inactive) | GI50 (NCI-H23): 12 µM (inactive) | GI50 (NCI-H460): 5.65 µM (inactive) | GI50 (NCI-H522): 5.05 µM (inactive) | GI50 (NCI/ADR-RES): 27.1 µM (inactive) | GI50 (OVCAR-3): 5.28 µM (inactive) | GI50 (OVCAR-5): 19 µM (inactive) | GI50 (OVCAR-8): 7.4 µM (inactive) | GI50 (PC-3): 5.35 µM (inactive) | GI50 (RPMI-8226): 8.26 µM (inactive) | GI50 (RXF 393): 11.2 µM (inactive) | GI50 (SF-268): 6.5 µM (inactive) | GI50 (SF-539): 6.08 µM (inactive) | GI50 (SK-MEL-28): 6.19 µM (inactive) | GI50 (SK-MEL-2): 14 µM (inactive) | GI50 (SK-MEL-5): 6.3 µM (inactive) | GI50 (SK-OV-3): 7.06 µM (inactive) | GI50 (SN12C): 7.94 µM (inactive) | GI50 (SNB-19): 3.78 µM (inactive) | GI50 (SR): 4.24 µM (inactive) | GI50 (SW-620): 6.97 µM (inactive) | GI50 (T47D): 3.98 µM (inactive) | GI50 (TK-10): 15 µM (inactive) | GI50 (U-251): 3.06 µM (inactive) | GI50 (UACC-257): 15.6 µM (inactive) | GI50 (UACC-62): 7.03 µM (inactive) | GI50 (UO-31): 7.13 µM (inactive)

Cc1cc(C(O)CNC(C)CCn2cnc3c2c(=O)n(C)c(=O)n3C)ccc1O (configuration not stated)
GI50 (786-0): > 100 µM (inactive) | GI50 (A498): > 100 µM (inactive) | GI50 (A549): > 100 µM (inactive) | GI50 (ACHN): > 100 µM (inactive) | GI50 (BT-549): > 100 µM (inactive) | GI50 (CAKI-1): > 100 µM (inactive) | GI50 (CCRF-CEM): > 100 µM (inactive) | GI50 (COLO 205): > 100 µM (inactive) | GI50 (DU-145): > 100 µM (inactive) | GI50 (EKVX): > 100 µM (inactive) | GI50 (HCT-116): > 100 µM (inactive) | GI50 (HCT-15): > 100 µM | GI50 (HOP-62): > 100 µM (inactive) | GI50 (HOP-92): > 100 µM (inactive) | GI50 (HT-29): > 100 µM (inactive) | GI50 (Hs-578T): > 100 µM (inactive) | GI50 (IGROV-1): > 100 µM (inactive) | GI50 (K562): > 100 µM (inactive) | GI50 (KM12): > 100 µM (inactive) | GI50 (LOX IMVI): > 100 µM (inactive) | GI50 (M14): > 100 µM (inactive) | GI50 (MCF7): > 100 µM (inactive) | GI50 (MDA-MB-231): > 100 µM (inactive) | GI50 (MDA-MB-435): > 100 µM (inactive) | GI50 (MOLT-4): > 100 µM (inactive) | GI50 (Malme-3M): > 100 µM (inactive) | GI50 (NCI-H226): > 100 µM (inactive) | GI50 (NCI-H23): > 100 µM (inactive) | GI50 (NCI-H460): > 100 µM (inactive) | GI50 (NCI-H522): > 100 µM (inactive) | GI50 (NCI/ADR-RES): > 100 µM (inactive) | GI50 (OVCAR-3): > 100 µM (inactive) | GI50 (OVCAR-4): > 100 µM (inactive) | GI50 (OVCAR-5): > 100 µM (inactive) | GI50 (OVCAR-8): > 100 µM (inactive) | GI50 (PC-3): > 100 µM (inactive) | GI50 (RPMI-8226): > 100 µM (inactive) | GI50 (RXF 393): > 100 µM (inactive) | GI50 (SF-268): > 100 µM (inactive) | GI50 (SF-295): > 100 µM (inactive) | GI50 (SF-539): > 100 µM (inactive) | GI50 (SK-MEL-28): > 100 µM (inactive) | GI50 (SK-MEL-2): > 100 µM (inactive) | GI50 (SK-MEL-5): > 100 µM (inactive) | GI50 (SK-OV-3): > 100 µM (inactive) | GI50 (SN12C): > 100 µM (inactive) | GI50 (SNB-19): > 100 µM (inactive) | GI50 (SNB-75): > 100 µM (inactive) | GI50 (SR): > 100 µM (inactive) | GI50 (SW-620): > 100 µM (inactive) | GI50 (T47D): > 100 µM (inactive) | GI50 (TK-10): > 100 µM (inactive) | GI50 (U-251): > 100 µM (inactive) | GI50 (UACC-257): > 100 µM (inactive) | GI50 (UACC-62): > 100 µM (inactive) | GI50 (UO-31): > 100 µM (inactive)

Cc1nc(=O)n2c(c1C(=O)Nc1ccc(Cl)cc1)NCC2
GI50 (A498): > 72.8 µM (inactive) | GI50 (HOP-92): > 79.4 µM (inactive)
